In ChEMBL document CHEMBL2046367, “Novel BACE1 inhibitors possessing a 5-nitroisophthalic scaffold at the P2 position” (Bioorg Med Chem Lett, 2012):

Experiments:
Beta-secretase 1 [1] = target: T1, Beta-secretase 1 (Homo sapiens, UniProt P56817); assay: Inhibition of human recombinant BACE1 at 0.2 uM by FRET assay
Beta-secretase 1 [2] = target: T1, Beta-secretase 1; assay: Inhibition of human recombinant BACE1 by FRET assay
Beta-secretase 1 [3] = target: T1, Beta-secretase 1; assay: Inhibition of human recombinant BACE1 at 2 uM by FRET assay

T1 sequence (P56817 whole entry): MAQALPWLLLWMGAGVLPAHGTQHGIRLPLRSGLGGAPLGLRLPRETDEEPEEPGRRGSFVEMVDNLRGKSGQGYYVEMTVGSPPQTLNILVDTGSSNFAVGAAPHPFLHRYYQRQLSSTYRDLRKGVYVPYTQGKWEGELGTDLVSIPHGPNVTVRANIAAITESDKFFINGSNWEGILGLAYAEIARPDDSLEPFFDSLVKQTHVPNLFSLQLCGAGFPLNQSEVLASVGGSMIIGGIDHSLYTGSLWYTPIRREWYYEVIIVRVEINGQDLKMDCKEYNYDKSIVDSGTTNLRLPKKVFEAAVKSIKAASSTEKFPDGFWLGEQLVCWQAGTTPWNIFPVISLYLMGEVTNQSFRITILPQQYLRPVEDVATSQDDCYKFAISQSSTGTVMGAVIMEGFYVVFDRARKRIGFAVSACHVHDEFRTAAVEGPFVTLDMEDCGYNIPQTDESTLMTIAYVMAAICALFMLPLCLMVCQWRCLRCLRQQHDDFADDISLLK

SMILES | inhibition (Beta-secretase 1 [1]) | IC50 (Beta-secretase 1 [2]) | inhibition (Beta-secretase 1 [3])
O=C(N[C@@H](Cc1ccccc1)[C@H](O)C(=O)Nc1cccc(-c2nn[nH]n2)c1)c1cc(C(=O)N2COC[C@@H]2c2ccc(F)cc2)cc([N+](=O)[O-])c1 | 91% | 13 nM | 99%
C[C@@H](NC(=O)c1cc(C(=O)N[C@@H](Cc2ccccc2)[C@H](O)C(=O)Nc2cccc(-c3nn[nH]n3)c2)cc([N+](=O)[O-])c1)c1ccccc1 | 44% | – | 83%
O=C(N[C@@H](Cc1ccccc1)[C@H](O)C(=O)Nc1cccc(-c2nn[nH]n2)c1)c1cc(C(=O)N2CCCCCCCC2)cc([N+](=O)[O-])c1 | – | – | 28%
O=C(N[C@@H](Cc1ccccc1)[C@H](O)C(=O)Nc1cccc(-c2nn[nH]n2)c1)c1cc(C(=O)N2CCCCCC2)cc([N+](=O)[O-])c1 | – | – | 60%
C[C@H]1COCN1C(=O)c1cc(C(=O)N[C@@H](Cc2ccccc2)[C@H](O)C(=O)Nc2cccc(-c3nn[nH]n3)c2)cc([N+](=O)[O-])c1 | – | – | 33%
O=C(N[C@@H](Cc1ccccc1)[C@H](O)C(=O)Nc1cccc(-c2nn[nH]n2)c1)c1cc(C(=O)N2COC[C@@H]2Cc2ccccc2)cc([N+](=O)[O-])c1 | 45% | – | 89%
O=C(N[C@@H](Cc1ccccc1)[C@H](O)C(=O)Nc1cccc(-c2nn[nH]n2)c1)c1cccc(C(=O)N2COC[C@@H]2c2ccccc2)c1 | 46% | 192 nM | 85%
O=C(N[C@@H](Cc1ccccc1)[C@H](O)C(=O)Nc1cccc(-c2nn[nH]n2)c1)c1cc(C(=O)N2CCCCCCC2)cc([N+](=O)[O-])c1 | 38% | – | 80%
CCCC[C@H]1COCN1C(=O)c1cc(C(=O)N[C@@H](Cc2ccccc2)[C@H](O)C(=O)Nc2cccc(-c3nn[nH]n3)c2)cc([N+](=O)[O-])c1 | 59% | – | 92%
O=C(N[C@@H](Cc1ccccc1)[C@H](O)C(=O)Nc1cccc(-c2nn[nH]n2)c1)c1cc(C(=O)N2CCOCC2)cc([N+](=O)[O-])c1 | – | – | 0%
O=C(N[C@@H](Cc1ccccc1)[C@H](O)C(=O)Nc1cccc(-c2nn[nH]n2)c1)c1cc(Br)cc(C(=O)N2COC[C@@H]2c2ccccc2)c1 | 84% | 25 nM | 98%
CC(C)[C@H]1COCN1C(=O)c1cc(C(=O)N[C@@H](Cc2ccccc2)[C@H](O)C(=O)Nc2cccc(-c3nn[nH]n3)c2)cc([N+](=O)[O-])c1 | 44% | – | 88%
CCC[C@H]1COCN1C(=O)c1cc(C(=O)N[C@@H](Cc2ccccc2)[C@H](O)C(=O)Nc2cccc(-c3nn[nH]n3)c2)cc([N+](=O)[O-])c1 | 57% | – | 93%
O=C(N[C@@H](Cc1ccccc1)[C@H](O)C(=O)Nc1cccc(-c2nnn[nH]2)c1)c1cc(I)cc(C(=O)N2COC[C@@H]2c2ccccc2)c1 | – | 34 nM | –
O=C(N[C@@H](Cc1ccccc1)[C@H](O)C(=O)Nc1cccc(-c2nn[nH]n2)c1)c1cc(C(=O)N2COC[C@@H]2Cc2ccc(O)cc2)cc([N+](=O)[O-])c1 | – | – | 80%
O=C(N[C@@H](Cc1ccccc1)[C@H](O)C(=O)Nc1cccc(-c2nn[nH]n2)c1)c1cc(C(=O)N2COC[C@@H]2CC2CCCCC2)cc([N+](=O)[O-])c1 | – | – | 50%
O=C(N[C@@H](Cc1ccccc1)[C@H](O)C(=O)Nc1cccc(-c2nn[nH]n2)c1)c1cc(C(=O)N2CCCCC2)cc([N+](=O)[O-])c1 | – | – | 49%
CC[C@H]1COCN1C(=O)c1cc(C(=O)N[C@@H](Cc2ccccc2)[C@H](O)C(=O)Nc2cccc(-c3nn[nH]n3)c2)cc([N+](=O)[O-])c1 | 54% | – | 92%
CC(C)(C)c1cc(C(=O)N[C@@H](Cc2ccccc2)[C@H](O)C(=O)Nc2cccc(-c3nn[nH]n3)c2)cc(C(=O)N2COC[C@@H]2c2ccccc2)c1 | – | – | 63%
CCCN(CCC)C(=O)c1cc(C(=O)N[C@@H](Cc2ccccc2)[C@H](O)C(=O)Nc2cccc(-c3nn[nH]n3)c2)cc([N+](=O)[O-])c1 | – | – | 79%
O=C(N[C@@H](Cc1ccccc1)[C@H](O)C(=O)Nc1cccc(-c2nn[nH]n2)c1)c1cc(C(=O)N2CCCC2)cc([N+](=O)[O-])c1 | – | – | 24%

More lines, now with the values ahead:

inhibition (Beta-secretase 1 [1]) | IC50 (Beta-secretase 1 [2]) | inhibition (Beta-secretase 1 [3]) | SMILES
– | – | 49% | Nc1cc(C(=O)N[C@@H](Cc2ccccc2)[C@H](O)C(=O)Nc2cccc(-c3nn[nH]n3)c2)cc(C(=O)N2COC[C@@H]2c2ccccc2)c1
– | 67 nM | – | Cc1cc(C(=O)N[C@@H](Cc2ccccc2)[C@H](O)C(=O)Nc2cccc(-c3nnn[nH]3)c2)cc(C(=O)N2COC[C@@H]2c2ccccc2)c1
88% | 19 nM | 98% | O=C(N[C@@H](Cc1ccccc1)[C@H](O)C(=O)Nc1cccc(-c2nn[nH]n2)c1)c1cc(C(=O)N2COC[C@@H]2c2ccccc2)cc([N+](=O)[O-])c1
41% | – | 81% | O=C(N[C@@H](Cc1ccccc1)[C@H](O)C(=O)Nc1cccc(-c2nn[nH]n2)c1)c1cc(C(=O)N2COC[C@@H]2c2cc(F)c(F)c(F)c2)cc([N+](=O)[O-])c1
50% | – | 87% | C[C@@H](NC(=O)c1cc(C(=O)N[C@@H](Cc2ccccc2)[C@H](O)C(=O)Nc2cccc(-c3nn[nH]n3)c2)cc([N+](=O)[O-])c1)c1ccc(F)cc1
– | – | 71% | CC(C)(C)[C@H]1COCN1C(=O)c1cc(C(=O)N[C@@H](Cc2ccccc2)[C@H](O)C(=O)Nc2cccc(-c3nn[nH]n3)c2)cc([N+](=O)[O-])c1
42% | – | 85% | CC(C)C[C@H]1COCN1C(=O)c1cc(C(=O)N[C@@H](Cc2ccccc2)[C@H](O)C(=O)Nc2cccc(-c3nn[nH]n3)c2)cc([N+](=O)[O-])c1
– | – | 79% | CC(=O)Oc1cc(C(=O)N[C@@H](Cc2ccccc2)[C@H](O)C(=O)Nc2cccc(-c3nn[nH]n3)c2)cc(C(=O)N2COC[C@@H]2c2ccccc2)c1
45% | – | 86% | CSCC[C@H]1COCN1C(=O)c1cc(C(=O)N[C@@H](Cc2ccccc2)[C@H](O)C(=O)Nc2cccc(-c3nn[nH]n3)c2)cc([N+](=O)[O-])c1
60% | 122 nM | 91% | O=C(O)c1cc(C(=O)N[C@@H](Cc2ccccc2)[C@H](O)C(=O)Nc2cccc(-c3nn[nH]n3)c2)cc(C(=O)N2COC[C@@H]2c2ccccc2)c1
65% | – | 95% | Cc1cc(C(=O)N[C@@H](Cc2ccccc2)[C@H](O)C(=O)Nc2cccc(-c3nn[nH]n3)c2)cc(C(=O)N2COC[C@@H]2c2ccccc2)c1
– | – | 57% | O=C(N[C@@H](Cc1ccccc1)[C@H](O)C(=O)Nc1cccc(-c2nn[nH]n2)c1)c1cc(C(=O)N2COC[C@@H]2Cc2c[nH]c3ccccc23)cc([N+](=O)[O-])c1
78% | – | 98% | O=C(N[C@@H](Cc1ccccc1)[C@H](O)C(=O)Nc1cccc(-c2nn[nH]n2)c1)c1cc(I)cc(C(=O)N2COC[C@@H]2c2ccccc2)c1
57% | – | 89% | COC[C@H]1CCCN1C(=O)c1cc(C(=O)N[C@@H](Cc2ccccc2)[C@H](O)C(=O)Nc2cccc(-c3nn[nH]n3)c2)cc([N+](=O)[O-])c1
62% | – | 94% | CCC(C)[C@H]1COCN1C(=O)c1cc(C(=O)N[C@@H](Cc2ccccc2)[C@H](O)C(=O)Nc2cccc(-c3nn[nH]n3)c2)cc([N+](=O)[O-])c1 (stereo partly specified)
